This note sets out measurements from patent publication US11471387B2, “Oral cavity care method and oral cavity care system” (priority 2017, dated 2022).

In series [1] the test system is tissue cells (FIGS. 6A, 6C). Briefly: Safety test, survival rate of tissue cells (FIGS. 6A and 6C).
For series [2], the system named is tissue cells (FIGS. 6B, 6D). The series can be described thus: Safety test, survival rate of tissue cells (FIGS. 6B and 6D).

Each structure is given as a SMILES string.

As to `[H]/N=C(\N/C(=N/[H])NCCCCCCNC(=N)NC(=N)Nc1ccc(Cl)cc1)Nc1ccc(Cl)cc1` [chlorhexidine], the “50% survival rate of tissue cells (time)” value in series [1] (FIG. 6A) stood at 10.8 h; in series [2] (FIG. 6B), 8.4 h. In addition, the cytotoxicity with time entry in series [1] (tissue cells of FIGS. 6A/6C) and in series [2] (tissue cells of FIGS. 6B/6D) was “cytotoxic with time” each time.
